Reference: US20050101595A1, “N-containing cycloalkyl-substituted amino-thiazole derivatives and pharmaceutical compositions for inhibiting cell proliferation and methods for their use” (PFIZER INC., priority 2003, published 2005)
Structures can show the parent of a compound that is named as a salt. Where two headings read alike, the source gives them in different places.

Assays:
[1] = target: human CDK4 and genetically truncated (1-264) cyclin D3 (Homo sapiens, UniProt P11802); test: Inhibition of CDK4/Cyclin D Retinoblastoma Kinase Activity; assay type: biochemical; conditions: for Ki: apparent Ki, CDK4/truncated cyclin D3, Rb fragment substrate, 25 μM ATP
Chain of human CDK4 and genetically truncated (1-264) cyclin D3 (P11802 whole entry, the tested form may be a part): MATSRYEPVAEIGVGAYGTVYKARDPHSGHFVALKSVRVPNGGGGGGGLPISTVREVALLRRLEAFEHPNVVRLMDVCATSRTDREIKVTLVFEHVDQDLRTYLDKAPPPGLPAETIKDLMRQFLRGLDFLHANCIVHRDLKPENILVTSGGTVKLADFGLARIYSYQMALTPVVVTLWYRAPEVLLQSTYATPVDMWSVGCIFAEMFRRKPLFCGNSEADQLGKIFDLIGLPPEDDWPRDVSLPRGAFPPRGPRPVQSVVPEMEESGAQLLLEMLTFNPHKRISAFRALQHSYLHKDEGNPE
Chain of human CDK4 and genetically truncated (1-264) cyclin D3 (P30281 1-264 partner): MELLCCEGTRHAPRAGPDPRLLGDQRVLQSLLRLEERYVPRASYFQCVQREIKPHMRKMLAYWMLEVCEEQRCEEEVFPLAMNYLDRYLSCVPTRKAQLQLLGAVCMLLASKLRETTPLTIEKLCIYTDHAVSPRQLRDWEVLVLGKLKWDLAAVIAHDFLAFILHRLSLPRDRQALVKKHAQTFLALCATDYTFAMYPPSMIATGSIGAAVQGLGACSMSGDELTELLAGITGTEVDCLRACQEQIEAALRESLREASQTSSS
Procedure, shortened: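 Human CDK4/truncated cyclin D3 (1-264) complex from baculovirus-infected insect cells, 5 nM, phosphorylating Rb fragment (residues 386-928, His-tagged) with 25 μM [32/33P]ATP in HEPES pH 7.4, MgCl2, 2% DMSO at 30° C. for 20 min (60 min for tight binders). Filter-captured radioactivity by phosphorimager; apparent Ki from competitive or tight-binding fits.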

HCT-116 cell line = test: Inhibition of cell growth, tetrazolium salt (MTT) assay; assay type: cell-based; conditions: for HCT-116 % Inhibition at 0.25 μM: 0.25 μM compound; for IC50: Homo sapiens, HCT-116, 120 h, MTT, three to five days
Procedure, shortened: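 Growth inhibition by MTT reduction at 540 nm (0.2 mg/mL, 4 h at 37° C, formazan dissolved in DMSO), normalized to cells given only 0.5% v/v DMSO. HCT-116 cultures in McCoy's 5A were dosed 4 h post-plating and kept three to five days at 37° C, 5% CO2.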

CDK2/Cyclin A = CDK2/Cyclin A (Homo sapiens, UniProt P24941); test: Inhibition of CDK2/Cyclin A Retinoblastoma Kinase Activity; assay type: biochemical; conditions: for Ki: apparent Ki, CDK2/proteolyzed cyclin A, Rb fragment substrate, 25 μM ATP; for CDK2 % Inhibition At 0.03 μM: Table 2
Procedure, shortened: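 Baculovirus-expressed CDK2 complexed with proteolyzed cyclin A (10 or 19 nM), Rb fragment substrate, 25 μM [32P/33P]ATP, HEPES pH 7.4, 30 °C for 60 or 75 min under initial-rate conditions. Filter capture and phosphorimager readout; apparent Ki fitted to competitive or tight-binding competitive inhibition.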

[2] = 0.1 μM compound, HCT-116, Table 4
[3] = first HCT-116 column (c4), read-out: HCT-116 IC50
[4] = second HCT-116 column (c5), read-out: HCT-116 IC50
[5] = 0.1 μM compound, HCT-116, Table 3

## Nc1nc(NC2CCN(C(=O)c3ccccc3F)CC2)sc1C(=O)c1c(F)cccc1F [Example Q11]
[1]; 0.03 μM compound, Table 4
  CDK4 % Inhibition at 0.03 μM: 57%
HCT-116 cell line; [2]
  HCT-116 % Inhibition at 0.1 μM: 7%
HCT-116 cell line; HCT-116, Table 4
  HCT-116 % Inhibition at 0.25 μM: 43%
CDK2/Cyclin A; 0.03 μM compound, Table 4
  CDK2 % Inhibition at 0.03 μM: 30%

## Nc1nc(NC2CCN(C(=O)[C@H](Cc3ccccc3)NS(=O)(=O)c3cccc4ccccc34)CC2)sc1C(=O)c1c(F)cccc1F [Example R73]
[1]; at 0.03 μM
  CDK4 % Inhibition at 0.03 μM: 19%
HCT-116 cell line; HCT-116 cells, at 0.1 μM
  HCT-116 % Inhibition at 0.1 μM: 4%
HCT-116 cell line; HCT-116 cells
  HCT-116 5 Inhibition at 0.25 μM: 38
CDK2/Cyclin A; at 0.03 μM
  CDK2 % Inhibition at 0.03 μM: 6%

## Nc1nc(NC2CCN(C(=O)N3CCCC3)CC2)sc1C(=O)c1c(F)cccc1F [Example R81]
[1]; at 0.03 μM
  CDK4 % Inhibition at 0.03 μM: 29%
HCT-116 cell line; HCT-116 cells, at 0.1 μM
  HCT-116 % Inhibition at 0.1 μM: 13%
HCT-116 cell line; HCT-116 cells
  HCT-116 5 Inhibition at 0.25 μM: 43
CDK2/Cyclin A; at 0.03 μM
  CDK2 % Inhibition at 0.03 μM: −10%

## CC(C)S(=O)(=O)c1csc(C(=O)N2CCC(Nc3nc(N)c(C(=O)c4c(F)cccc4F)s3)CC2)c1 [Example R63]
[1]; at 0.03 μM
  CDK4 % Inhibition at 0.03 μM: 12%
HCT-116 cell line; HCT-116 cells, at 0.1 μM
  HCT-116 % Inhibition at 0.1 μM: 0%
HCT-116 cell line; HCT-116 cells
  HCT-116 5 Inhibition at 0.25 μM: 38
CDK2/Cyclin A; at 0.03 μM
  CDK2 % Inhibition at 0.03 μM: 11%

## Nc1nc(NC2CCN(S(=O)(=O)c3cnc(Cl)nc3)CC2)sc1C(=O)c1c(F)cccc1F [Example F47]
[1]
  Ki: 0.69 nM
HCT-116 cell line; [3]
  IC50: 900 nM
HCT-116 cell line; [4]
  IC50: 2300 nM
CDK2/Cyclin A
  Ki: 0.27 nM

## Nc1nc(NC2CCN(S(=O)(=O)c3ccc(S)nc3)CC2)sc1C(=O)c1c(F)cccc1F [Example L4, 1-{4-Amino-2-[1-(6-mercapto-pyridine-3-sulfonyl)-piperidin-4-ylamino]-thiazol-5-yl}-1-(2,6-difluoro-phenyl)-methanone Hydrochloride.]
[1]
  Ki: 1.8 nM
HCT-116 cell line; [3]
  IC50: > 500 nM
HCT-116 cell line; [4]
  IC50: > 500 nM
CDK2/Cyclin A
  Ki: 0.3 nM

## Nc1nc(NC2CCN(S(=O)(=O)CCN3CCCC3)CC2)sc1C(=O)c1c(F)cccc1F [Example K35, 1-{4-Amino-2-[1-(2-pyrrolidin-1-yl-ethanesulfonyl)-piperidin-4-ylamino]-thiazol-5-yl}-1-(2,6-difluoro-phenyl)-methanone.]
[1]
  Ki: 1.1 nM
HCT-116 cell line; [3]
  IC50: 140 nM
HCT-116 cell line; [4]
  IC50: 450 nM
CDK2/Cyclin A
  Ki: 3 nM

## Nc1nc(NC2CCN(S(=O)(=O)c3ccc(Cl)cc3)CC2)sc1C(=O)c1c(F)cccc1F [Example P14]
[1]; 0.03 μM compound, Table 3
  CDK4 % Inhibition at 0.03 μM: 67%
HCT-116 cell line; [5]
  HCT-116 % Inhibition at 0.1 μM: 23%
HCT-116 cell line; HCT-116, Table 3
  HCT-116 % Inhibition at 0.25 μM: 25%
CDK2/Cyclin A; 0.03 μM compound, Table 3
  CDK2 % Inhibition at 0.03 μM: 60%

## CCc1ccc(S(=O)(=O)N2CCC(Nc3nc(N)c(C(=O)c4c(F)cccc4F)s3)CC2)cc1 [Example P30]
[1]; 0.03 μM compound, Table 3
  CDK4 % Inhibition at 0.03 μM: 61%
HCT-116 cell line; [5]
  HCT-116 % Inhibition at 0.1 μM: 9%
HCT-116 cell line; HCT-116, Table 3
  HCT-116 % Inhibition at 0.25 μM: 17%
CDK2/Cyclin A; 0.03 μM compound, Table 3
  CDK2 % Inhibition at 0.03 μM: 53%

## Nc1nc(NC2CCN(C(=O)Oc3ccc([N+](=O)[O-])cc3)CC2)sc1C(=O)c1c(F)cccc1F [Example C16, 4-[4-Amino-5-(2,6-difluoro-benzoyl)-thiazol-2-ylamino]-piperidine-1-carboxylic acid 4-nitro-phenyl ester]
[1]
  Ki: 7.5 nM
HCT-116 cell line; read-out: HCT-116 IC50, first HCT-116 column (c4)
  IC50: 130 nM
HCT-116 cell line; read-out: HCT-116 IC50, second HCT-116 column (c5)
  IC50: 400 nM
CDK2/Cyclin A
  Ki: 18 nM

## Cc1ccccc1C(=O)N1CCC(Nc2nc(N)c(C(=O)c3c(F)cccc3F)s2)CC1 [Example Q17]
[1]; 0.03 μM compound, Table 4
  CDK4 % Inhibition at 0.03 μM: 45%
HCT-116 cell line; [2]
  HCT-116 % Inhibition at 0.1 μM: 2%
HCT-116 cell line; HCT-116, Table 4
  HCT-116 % Inhibition at 0.25 μM: 34%
CDK2/Cyclin A; 0.03 μM compound, Table 4
  CDK2 % Inhibition at 0.03 μM: −11%

## Nc1nc(NC2CCN(S(=O)(=O)c3ccc(OCCN4CCCCC4)nc3)CC2)sc1C(=O)c1c(F)cccc1F [Example H6, 1-[4-Amino-2-{1-[6-(2-piperidin-1-yl-ethoxy)-pyridine-3-sulfonyl]-piperidin-4-ylamino}-thiazol-5-yl)-1-(2,6-difluoro-phenyl)-methanone Dihydrochloride]
[1]
  Ki: 0.38 nM
HCT-116 cell line; [3]
  IC50: 60 nM
HCT-116 cell line; [4]
  IC50: 500 nM
CDK2/Cyclin A
  Ki: 0.84 nM

## Cc1nn(-c2ccccc2)nc1C(=O)N1CCC(Nc2nc(N)c(C(=O)c3c(F)cccc3F)s2)CC1 [Example R24]
[1]; at 0.03 μM
  CDK4 % Inhibition at 0.03 μM: 49%
HCT-116 cell line; HCT-116 cells, at 0.1 μM
  HCT-116 % Inhibition at 0.1 μM: 5%
HCT-116 cell line; HCT-116 cells
  HCT-116 5 Inhibition at 0.25 μM: 39
CDK2/Cyclin A; at 0.03 μM
  CDK2 % Inhibition at 0.03 μM: 20%

## CCOC(=O)NC(=O)N1CCC(Nc2nc(N)c(C(=O)c3c(F)cccc3F)s2)CC1 [Example O38]
[1]; 0.03 μM compound, Table 2
  CDK4 % Inhibition at 0.03 μM: 15%
HCT-116 cell line; HCT-116, Table 2
  HCT-116 % Inhibition at 0.25 μM: 29%
CDK2/Cyclin A; 0.03 μM compound
  CDK2 % Inhibition At 0.03 μM: 29%

## C/C=C/C(=O)N1CCC(Nc2nc(N)c(C(=O)c3c(F)cccc3F)s2)CC1 [Example Q46]
[1]; 0.03 μM compound, Table 4
  CDK4 % Inhibition at 0.03 μM: 25%
HCT-116 cell line; [2]
  HCT-116 % Inhibition at 0.1 μM: 0%
HCT-116 cell line; HCT-116, Table 4
  HCT-116 % Inhibition at 0.25 μM: 27%
CDK2/Cyclin A; 0.03 μM compound, Table 4
  CDK2 % Inhibition at 0.03 μM: −9%

## CN1CCC[C@@H](COc2ccc(S(=O)(=O)N3CCC(Nc4nc(N)c(C(=O)c5c(F)cccc5F)s4)CC3)cn2)C1 (stereo in doubt) [Example H10, 1-(4-Amino-2-{1-[6-(1-methyl-piperidin-3R-ylmethoxy)-pyridine-3-sulfonyl]-piperidin-4-ylamino}-thiazol-5-yl)-1-(2,6-difluoro-phenyl)-methanone]
[1]
  Ki: 0.7 nM
HCT-116 cell line; [3]
  IC50: 48 nM
HCT-116 cell line; [4]
  IC50: > 500 nM
CDK2/Cyclin A
  Ki: 1.1 nM

## Nc1nc(NC2CCN(C(=O)COc3ccccc3)CC2)sc1C(=O)c1c(F)cccc1F [Example Q41]
[1]; 0.03 μM compound, Table 4
  CDK4 % Inhibition at 0.03 μM: 36%
HCT-116 cell line; [2]
  HCT-116 % Inhibition at 0.1 μM: 3%
HCT-116 cell line; HCT-116, Table 4
  HCT-116 % Inhibition at 0.25 μM: 15%
CDK2/Cyclin A; 0.03 μM compound, Table 4
  CDK2 % Inhibition at 0.03 μM: 24%

## COC(=O)c1ccc(C(=O)N2CCC(Nc3nc(N)c(C(=O)c4c(F)cccc4F)s3)CC2)cc1 [Example R151]
[1]; at 0.03 μM
  CDK4 % Inhibition at 0.03 μM: 39%
HCT-116 cell line; HCT-116 cells, at 0.1 μM
  HCT-116 % Inhibition at 0.1 μM: 0%
HCT-116 cell line; HCT-116 cells
  HCT-116 5 Inhibition at 0.25 μM: 43
CDK2/Cyclin A; at 0.03 μM
  CDK2 % Inhibition at 0.03 μM: 24%

## CC1CCC(C)N1CCS(=O)(=O)N1CCC(Nc2nc(N)c(C(=O)c3c(F)cccc3F)s2)CC1 (mixture of isomers) [Example K26, (4-Amino-2-{1-[2-(cis/trans-2,5-dimethyl-pyrrolidin-1-yl)-ethanesulfonyl]-piperidin-4-ylamino}-thiazol-5-yl)-(2,6-difluoro-phenyl)-methanone Trifluoroacetic Acid Salt.]
[1]
  Ki: 2.1 nM
HCT-116 cell line; [3]
  IC50: 190 nM
HCT-116 cell line; [4]
  IC50: 800 nM
CDK2/Cyclin A
  Ki: 13 nM

## Cc1ccc(S(=O)(=O)NC(=O)N2CCC(Nc3nc(N)c(C(=O)c4c(F)cccc4F)s3)CC2)cc1 [Example O25]
[1]; 0.03 μM compound, Table 2
  CDK4 % Inhibition at 0.03 μM: 3%
HCT-116 cell line; HCT-116, Table 2
  HCT-116 % Inhibition at 0.25 μM: 27%
CDK2/Cyclin A; 0.03 μM compound
  CDK2 % Inhibition At 0.03 μM: 31%

## Nc1nc(NC2CCN(C(=O)OCc3ccccc3)CC2)sc1C(=O)c1c(F)cccc1F [Example Q6]
[1]; 0.03 μM compound, Table 4
  CDK4 % Inhibition at 0.03 μM: 24%
HCT-116 cell line; [2]
  HCT-116 % Inhibition at 0.1 μM: 9%
HCT-116 cell line; HCT-116, Table 4
  HCT-116 % Inhibition at 0.25 μM: 38%
CDK2/Cyclin A; 0.03 μM compound, Table 4
  CDK2 % Inhibition at 0.03 μM: −32%

## CCCc1ccccc1NC(=O)N1CCC(Nc2nc(N)c(C(=O)c3c(F)cccc3F)s2)CC1 [Example O81]
[1]; 0.03 μM compound, Table 2
  CDK4 % Inhibition at 0.03 μM: −4%
HCT-116 cell line; HCT-116, Table 2
  HCT-116 % Inhibition at 0.25 μM: 44%
CDK2/Cyclin A; 0.03 μM compound
  CDK2 % Inhibition At 0.03 μM: 25%

## Nc1nc(NC2CCN(C(=O)c3ccc4ccccc4c3)CC2)sc1C(=O)c1c(F)cccc1F [Example Q63]
[1]; 0.03 μM compound, Table 4
  CDK4 % Inhibition at 0.03 μM: 57%
HCT-116 cell line; [2]
  HCT-116 % Inhibition at 0.1 μM: 5%
HCT-116 cell line; HCT-116, Table 4
  HCT-116 % Inhibition at 0.25 μM: 25%
CDK2/Cyclin A; 0.03 μM compound, Table 4
  CDK2 % Inhibition at 0.03 μM: 39%

## CN1CCN(CCCS(=O)(=O)N2CCC(Nc3nc(N)c(C(=O)c4c(F)cccc4F)s3)CC2)CC1 [Example K16, 1-(4-Amino-2-{1-[3-(4-methylpiperazin-1-yl)propane-1-sulfonyl]-piperidin-4-ylamino}-thiazol-5-yl)-1-(2,6-difluoro-phenyl)-methanone.]
[1]
  Ki: 2.8 nM
HCT-116 cell line; [3]
  IC50: 1800 nM
HCT-116 cell line; [4]
  IC50: 5000 nM
CDK2/Cyclin A
  Ki: 7.8 nM
